From patent US11331290B2, “Niclosamide for the treatment of cancer metastasis” (Max-Delbrück-Centrum für Molekulare Medizin in der …, priority 2011, dated 2022)

Tested on: HCT116 cells
Assay: Anchorage-dependent cell proliferation (MTT), discontinued treatment
Format: cell-based, human
Experimental: For cell proliferation determination of HCT116, SW620, LS174T, SW480 and DLD-1 cells 2×10^3 cells were seeded in 96-well-plates (for each day one plate) and were given 24 hours to attach to the bottom of the well. Cells were from then on treated daily with 1 μM niclosamide or the respective amount of DMSO. For determination of viable cells 3-(4,5-dimethyl-2-thiazol)-2,5-diphenyl-2H-tetrazolium bromide (MTT; Sigma) was added to a final concentration of 0.5 mg per mL and incubated for 3 hours at 37° C. and 5% CO2 in a humidified incubator. […] Crystallized MTT was resolved by 10% SDS in 10 mM HCl and the absorption was measured at 560 nm. […] The average MTT metabolisation was determined of two independent experiments each performed in triplicate.
(A) S100A4 expression in vitro after discontinued niclosamide treatment. HCT116 cells were treated daily with 1 μM niclosamide for three consecutive days, medium was removed on day 4, and S100A4 expression was analyzed 24, 48, and 72 hours after niclosamide removal. S100A4 expression was analyzed by qRT-PCR and immunoblot. […] Cell migration rates of HCT116 cells treated as in (A) were determined by Boyden chamber assay. Differences in control vs. treated cells were analyzed by Student's t test. […] Cell proliferation was determined by MTT assay. […] (E) Luminescence signal from liver metastases and spleen tumors. […]

O=C(Nc1ccc([N+](=O)[O-])cc1Cl)c1cc(Cl)ccc1O [niclosamide, 2′,5-dichloro-4′-nitrosalicylanilide]
anchorage-dependent proliferation (1 μM daily, vs solvent-treated control): inhibited
anchorage-dependent proliferation after removal of niclosamide (niclosamide removed on day 5, following five days): did not reverse the inhibition of cell proliferation
